Assays:
Type in all cases: in vivo, mouse
[1] = tested on: aged wild type (WT; C57BL/6) mice; assay: Contextual Fear Conditioning (CFC); details: 10 mg/kg PO daily, after 8 days of treatment
Procedure: Mice were brought into the testing room immediately before their trial to avoid exposure to sounds and scents from testing. Day 1: For training, mice were placed in the chambers, bright house light and fan on, for 2 minutes. Then an auditory cue (2000 Hz, 70 dB, conditioned stimulus (CS)) was presented for 30 seconds. A 2 second foot shock (0.6 mA; unconditioned stimulus (US)) was administered for the final 2 seconds of the CS. This procedure was repeated once, each after a 2-minute interval, and the mouse was removed from the chamber 30 seconds after the second shock. The pans, chamber walls and grid floors were cleaned with 70% ethanol between trials. Day 2: […] after the training, the mouse was returned to the same chamber in which the training occurred (memory for context), and freezing behavior was recorded for 3 min. The mouse was returned to its home cage. The pans, chamber walls, and grid floors were cleaned with 70% ethanol between trials. Day 3: 24 hours after context testing, the mouse was returned to the same chamber and freezing was recorded in a novel environment (altered context) and in response to the cue (memory for cue). […] The mouse was placed in the novel environment and freezing was recorded for 2 minutes. The auditory cue (2000 Hz, 70 dB, CS) was then presented for 30 seconds, and freezing was again recorded for 2 minutes. […]

aged C57BL6 mice = assay: Open Field
Procedure: The open field test was used to evaluate general locomotor activity and exploratory behavior in a novel environment. It consisted of a square arena (16 in ×16 in). Mice were brought to the experimental room for at least 30 min of acclimation to the experimental room conditions (dim lighting) prior to testing. Mice were placed in the center of the arena, recorded, and tracked within a predefined peripheral and center space using the photobeam activity system automated software (ANY-maze) for 15 min. Total distance traveled, average velocity, and time spent in the peripheral and center zones were analyzed.
Three independent cohorts of aged wild type (WT; C57BL/6) mice between twenty to twenty-two months of age (20-22 mo) were homogenized into two (2) groups by body weight, total distance travelled in the open field test, and average velocity in the open field test. Group 1 was administered vehicle control PO daily. Group 2 was administered 10 mg/kg of the LTA4H inhibitor Compound 1 PO daily. Both groups were dosed for either 10 days or 4 weeks daily. Behavioral assays were run during the last week of dosing and animals were sacrificed at the end of the study for histological and molecular assays.

[2] = tested on: purified endothelial cells from the brains of aged C57BL/6 mice; assay: Microbulk qPCR of endothelial genes; details: 1 month bid P.O., 1 mg/kg Compound 1 or 2.5 mg/kg SC57461A
Procedure: (§1) Downregulation of the detrimental genes Bsg, Gbp4, and CXCL12 in purified endothelial cells from the brains of mice treated with LTA4H inhibitors Compound 1 or SC57461A were compared to those of vehicle treated mice. Gene expression was measured by qPCR from 500 sorted endothelial cells and was normalized to GAPDH control.
Aged C57BL/6 mice (21 months of age) were treated for 1 month bid P.O. with vehicle, 1 mg/kg Compound 1, or 2.5 mg/kg SC57461A (n=3 mice per treatment group). One cortical cap (cortex and hippocampus) from each mouse was isolated and cells were dissociated using Miltenyi Neutral Dissociation Kit (#130-092-628). Cells were sorted using Sony Multi-Application Cell Sorter MA900 into clean, RNAase free 200 uL PCR strip tube with 5 uL RNAlater at a concentration of 500 cells per tube. RNA was isolated follow kit protocol for Qiagen RNeasy Micro Kit (#74004). cDNA was synthesized using SuperScript III Kit Protocol and qPCR assays were run using TaqMan or SYBR green primers.
as §1, with “beneficial gene, Plat,” for “detrimental genes Bsg, Gbp4, and CXCL12”

total distance traveled in open field (aged C57BL6 mice; 4 weeks of dosing): no change in total distance traveled | velocity in open field (aged C57BL6 mice; 4 weeks of dosing): no change in velocity | total distance traveled in open field (aged C57BL6 mice; 10 days of dosing): no change in total distance traveled | velocity in open field (aged C57BL6 mice; 10 days of dosing): no change in velocity
Compound: O=C(O)C1CCN(Cc2ccc([C@H]3COc4ccccc4O3)cc2)CC1 [Example 1, 1-{4-[(2S)-2,3-dihydro-1,4-benzodioxin-2-yl]benzyl}piperidine-4-carboxylic acid]
percent time freezing during testing phase of CFC [1]: increased freezing time | time spent in periphery (P) or center (C) (aged C57BL6 mice; 4 weeks of dosing): no difference between time spent in the periphery (P) or center (C) | time spent in periphery (P) or center (C) (aged C57BL6 mice; 10 days of dosing): no difference between time spent in the periphery (P) or center (C) | Bsg gene expression [2]: down regulation of Bsg gene expression | CXCL12 gene expression [2]: down regulation of CXCL12 gene expression | Gpb4 gene expression [2]: down regulation of Gpb4 gene expression | Plat gene expression [2]: up regulation of Plat gene expression

Source: patent US11957671B2, “Benzodioxane modulators of leukotriene A4 hydrolase (LTA4H) for prevention and treatment of aging-associated diseases” (Alkahest, Inc., priority 2021, dated 2024)
